Assay results: ChEMBL document CHEMBL5335856, “Structurally Diverse Alkaloids with Anti-Renal-Fibrosis Activity from the Centipede Scolopendra subspinipes mutilans” (J Nat Prod, 2024)
Calls of active or inactive are those of the source.

Tests used:
Assay type in all cases: functional, cell-based
NRK-52E [1] = assay: Anti-renal-fibrosis activity in TGF-beta1 induced rat NRK-52E cells assessed as downregulation of alpha-SMA protein level at 20 uM by Western blot analysis
NRK-52E [2] = assay: Anti-renal-fibrosis activity in TGF-beta1 induced rat NRK-52E cells assessed as downregulation of collagen I protein level at 20 uM by Western blot analysis
RAW264.7 [3] = assay: Antiinflammatory activity against LPS-induced mouse RAW264.7 cells assessed as reduction in iNOS protein level at 20 uM
NRK-52E [4] = assay: Anti-renal-fibrosis activity in TGF-beta1 induced rat NRK-52E cells assessed as downregulation of fibronectin protein level at 20 uM by Western blot analysis
RAW264.7 [5] = assay: Antiinflammatory activity against LPS-induced mouse RAW264.7 cells assessed as reduction in COX-2 protein level at 20 uM

Measured: Activity

COc1cc(=O)[nH]c2c(OC)cccc12
active: all assays above

COc1cc(=O)n(C)c2c(O)cccc12
active: all assays above

N=C(N)N1CCC[C@H]1c1ccc2cc(O)cnc2c1O
active: RAW264.7 [3] | RAW264.7 [5]

Oc1cnc2c(O)cccc2c1
active: RAW264.7 [3] | RAW264.7 [5]

COc1c(O)c(=O)n(C)c2c(O)cccc12
active: all assays above

COc1c(O)cnc2c(O)cccc12
active: RAW264.7 [3] | RAW264.7 [5]
